Counter-ions that a name gives are not always drawn.

Nine compounds from patent publication US8362038B2, “1-isopropyl-2-oxo-1,2-dihydropyridine-3-carboxamide derivatives having 5-HT4 receptor agonistic activity” (Pfizer Inc., priority 2004, dated 2013) can be followed below.

One series has as its target T1, Human 5-HT4(d) (Homo sapiens, UniProt Q13639).
T1 construct: expressed in transfected cells; host or cells: HEK293
Kind of series: Human 5-HT4 binding ([3H]-GR113808 displacement, SPA). Conditions: for Ki: membranes of human 5-HT4(d) transfected HEK293 cells, [3H]-GR113808 0.2 nM. On the procedure: The 5-HT4 receptor binding affinities of the compounds of this invention are determined by the following procedures.
Human 5-HT4(d) transfected HEK293 cells were prepared and grown in-house. The collected cells were suspended in 50 mM HEPES (pH 7.4 at 4° C.) supplemented with protease inhibitor cocktail (Boehringer, 1:1000 dilution) and homogenized using a hand held Polytron PT 1200 disruptor set at full power for 30 sec on ice. The homogenates were centrifuged at 40,000×g at 4° C. for 30 min. The pellets were then resuspended in 50 mM HEPES (pH 7.4 at 4° C.) and centrifuged once more in the same manner. The final pellets were resuspended in an appropriate volume of 50 mM HEPES (pH 7.4 at 25° C.), homogenized, aliquoted and stored at −80° C. until use. An aliquot of membrane fractions was used for protein concentration determination using BCA protein assay kit (PIERCE) and ARVOsx plate reader (Wallac).
For the binding experiments, 25 μl of test compounds were incubated with 25 μl of [^3H]-GR113808 (Amersham, final 0.2 nM) and 150 μl of membrane homogenate and WGA-SPA beads (Amersham) suspension solutions (10 μg protein and 1 mg SPA beads/well) for 60 minutes at room temperature. Nonspecific binding was determined by 1 μM GR113808 (Tocris) at the final concentration. Incubation was terminated by centrifugation at 1000 rpm. Receptor-bound radioactivity was quantified by counting with MicroBeta plate counter (Wallac).

The next series is described as follows: Caco-2 permeability. Format: in vitro ADME. Conditions: human, Caco-2; apical pH 6.5 to basolateral pH 7.4, 10 μM, mean of 2 inserts; read-out: Caco2 Permeability [Papp]. On the procedure: (§1) Caco-2 permeability was measured according to the method described in Shiyin Yee, Pharmaceutical Research, 763 (1997).
(§2) Caco-2 cells were grown on filter supports (Falcon HTS multiwell insert system) for 14 days. Culture medium was removed from both the apical and basolateral compartments and the monolayers were preincubated with pre-warmed 0.3 ml apical buffer and 1.0 ml basolateral buffer for 0.5 hour at 37° C. in a shaker water bath at 50 cycles/min. The apical buffer consisted of Hanks Balanced Salt Solution, 25 mM D-glucose monohydrate, 20 mM MES Biological Buffer, 1.25 mM CaCl2 and 0.5 mM MgCl2 (pH 6.5). The basolateral buffer consisted of Hanks Balanced Salt Solution, 25 mM D-glucose monohydrate, 20 mM HEPES Biological Buffer, 1.25 mM CaCl2 and 0.5 mM MgCl2 (pH 7.4). At the end of the preincubation, the media was removed and test compound solution (10 μM) in buffer was added to the apical compartment. The inserts were moved to wells containing fresh basolateral buffer at 1 hr. Drug concentration in the buffer was measured by LC/MS analysis.
(§3) Flux rate (F, mass/time) was calculated from the slope of cumulative appearance of substrate on the receiver side and apparent permeability coefficient (Papp) was calculated from the following equation. Papp(cm/sec)=(F*VD)/(SA*MD)
(§4) where SA is surface area for transport (0.3 cm^2), VD is the donor volume (0.3 ml), MD is the total amount of drug on the donor side at t=0. All data represent the mean of 2 inserts. Monolayer integrity was determined by Lucifer Yellow transport.

In the next series the test system is Caco-2 cells. Description: Caco-2 permeability. Format: in vitro ADME. The protocol:
as §1, §2, §3, §4

T1 sequence (Q13639 1-360 isoform Q13639-3): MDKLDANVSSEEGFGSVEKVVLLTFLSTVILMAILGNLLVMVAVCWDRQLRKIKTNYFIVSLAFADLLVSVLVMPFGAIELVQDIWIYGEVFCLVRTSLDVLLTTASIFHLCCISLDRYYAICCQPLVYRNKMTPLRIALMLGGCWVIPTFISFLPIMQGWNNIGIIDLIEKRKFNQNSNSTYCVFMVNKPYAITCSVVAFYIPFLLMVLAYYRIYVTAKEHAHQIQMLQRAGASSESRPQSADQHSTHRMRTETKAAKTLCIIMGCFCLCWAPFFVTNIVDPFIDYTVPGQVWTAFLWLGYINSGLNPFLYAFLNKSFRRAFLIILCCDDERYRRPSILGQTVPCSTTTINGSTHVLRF

With `Cc1c(Cl)cc(C(=O)NCC2CCN(CC3(O)CCCCC3)CC2)c(=O)n1C(C)C` [Example 7, 5-Chloro-N-({1-[(1-Hydroxycyclohexyl)Methyl]Piperidin-4-Yl}Methyl)-1-Isopropyl-6-Methyl-2-Oxo-1,2-Dihydropyridine-3-Carboxamide], the melting point was 187 °C (dec.). Turning to `Cc1c(F)cc(C(=O)NCC2CCN(CC3(O)CCOCC3)CC2)c(=O)n1C(C)C` [Example 5, 5-Fluoro-N-({1-[(4-hydroxytetrahydro-2H-pyran-4-yl)methyl]piperidin-4-yl}methyl)-1-isopropyl-6-methyl-2-oxo-1,2-dihydropyridine-3-carboxamide], the melting point was 133 °C (dec.). Turning to `Cc1c(Cl)cc(C(=O)NCC2CCN(CC3(O)CCOCC3)CC2)c(=O)n1C(C)C` (as salt: hydrochloride) [Example 1, 5-Chloro-N-({1-[(4-hydroxytetrahydro-2H-pyran-4-yl)methyl]piperidin-4-yl}methyl)-1-isopropyl-6-methyl-2-oxo-1,2-dihydropyridine-3-carboxamide], the melting point is 283 °C (dec.).

With `CCc1c(Cl)cc(C(=O)NCC2CCN(CC3(O)CCOCC3)CC2)c(=O)n1C(C)C` (as salt: salt) [Example 2, 5-Chloro-6-ethyl-N-({1-[(4-hydroxytetrahydro-2H-pyran-4-yl)methyl]piperidin-4-yl}methyl)-1-isopropyl-2-oxo-1,2-dihydropyridine-3-carboxamide], the melting point is 123 °C (dec.).

For the compound `Cc1c(Br)cc(C(=O)NCC2CCN(CC3(O)CCOCC3)CC2)c(=O)n1C(C)C` (as salt: salt) [Example 4, 5-Bromo-N-({1-[(4-hydroxytetrahydro-2H-pyran-4-yl)methyl]piperidin-4-yl}methyl)-1-isopropyl-6-methyl-2-oxo-1,2-dihydropyridine-3-carboxamide], the melting point is 205 °C (dec.). As for `Cc1cc(C(=O)NCC2CCN(CC3(O)CCOCC3)CC2)c(=O)n(C(C)C)c1C` (as salt: salt) [Example 3, N-({1-[(4-Hydroxytetrahydro-2H-pyran-4-yl)methyl]piperidin-4-yl}methyl)-1-isopropyl-5,6-dimethyl-2-oxo-1,2-dihydropyridine-3-carboxamide], the melting point is 178 °C (dec.). `Cc1c(Cl)cc(C(=O)NCC2CCN(CC3(O)CCOCC3)CC2)c(=O)n1C(C)C` [Example 1, 5-Chloro-N-({1-[(4-hydroxytetrahydro-2H-pyran-4-yl)methyl]piperidin-4-yl}methyl)-1-isopropyl-6-methyl-2-oxo-1,2-dihydropyridine-3-carboxamide] gave a Ki on Human 5-HT4(d) of 10.9 nM. In addition, the Papp A→B at 10 μM in “Caco-2 permeability” was found to be 5.3 ×10⁻⁶ cm/s. As for `CCCCN1CCC(CNC(=O)c2cc(Cl)c(N)n(C)c2=O)CC1` [Compound A], at Human 5-HT4(d), the “affinity / binding activity to 5-HT4 receptor (in words)” value is “weak affinity” and the Ki was greater than 500 nM. Further, the Papp A→B at 10 μM in “Caco-2 permeability” was found to be 0.2 ×10⁻⁶ cm/s. For the same compound, the “permeability against caco2 membrane (in words)” value with Caco-2 cells is “low permeability”. For the compound `Cc1c(Cl)cc(C(=O)NCC2CCN(CC3CCCCC3)CC2)c(=O)n1C(C)C` [Example 6, 5-Chloro-N-{[1-(cyclohexylmethyl)piperidin-4-yl]methyl}-1-isopropyl-6-methyl-2-oxo-1,2-dihydropyridine-3-carboxamide], the melting point is 168 °C (dec.).
